Assay results as given in ChEMBL document CHEMBL2074095, “Molecular cloning of PEPT 2, a new member of the H+/peptide cotransporter family, from human kidney” (Biochim Biophys Acta, 1995).
Residues, ends and D or L forms follow the SMILES beside them.

What was measured:
Assay type in all cases: functional, cell-based
Set-up in all cases: scale not given: the % may be the effect or the level left
[1] = target: T1, Solute carrier family 15 member 2 (Homo sapiens) (UniProt Q16348); experiment: TP_TRANSPORTER: inhibition of Gly-Sar uptake (Gly-Sar: 30 uM, Cephadroxil: 10000 uM) in PEPT2-expressing HeLa cells
T1 sequence (whole entry): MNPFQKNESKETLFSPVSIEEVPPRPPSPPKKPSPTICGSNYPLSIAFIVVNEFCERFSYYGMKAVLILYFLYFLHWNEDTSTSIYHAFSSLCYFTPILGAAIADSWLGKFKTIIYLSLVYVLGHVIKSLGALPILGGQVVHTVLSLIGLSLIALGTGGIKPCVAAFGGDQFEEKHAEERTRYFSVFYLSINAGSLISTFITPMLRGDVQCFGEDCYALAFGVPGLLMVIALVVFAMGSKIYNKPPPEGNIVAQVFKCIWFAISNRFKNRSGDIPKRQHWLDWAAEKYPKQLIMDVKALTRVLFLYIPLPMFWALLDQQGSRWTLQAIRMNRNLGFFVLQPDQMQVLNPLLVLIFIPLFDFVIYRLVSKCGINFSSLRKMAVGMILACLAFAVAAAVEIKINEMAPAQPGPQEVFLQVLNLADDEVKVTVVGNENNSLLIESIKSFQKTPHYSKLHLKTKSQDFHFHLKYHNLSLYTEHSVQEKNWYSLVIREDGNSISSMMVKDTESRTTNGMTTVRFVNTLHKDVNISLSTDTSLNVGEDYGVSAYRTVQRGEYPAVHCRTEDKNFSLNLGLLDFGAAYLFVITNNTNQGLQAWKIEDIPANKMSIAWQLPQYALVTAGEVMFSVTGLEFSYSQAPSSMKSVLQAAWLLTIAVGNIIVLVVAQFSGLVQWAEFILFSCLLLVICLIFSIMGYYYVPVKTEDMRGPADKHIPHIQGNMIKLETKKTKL

[2] = target: T1, Solute carrier family 15 member 2 (Homo sapiens); experiment: TP_TRANSPORTER: inhibition of Gly-Sar uptake (Gly-Sar: 30 uM, Cephalexin: 10000 uM) in PEPT2-expressing HeLa cells
[3] = target: T1, Solute carrier family 15 member 2 (Homo sapiens); experiment: TP_TRANSPORTER: inhibition of Gly-Sar uptake (Gly-Sar: 30 uM, Ala-Gly-Pro: 10000 uM) in PEPT2-expressing HeLa cells
[4] = target: T1, Solute carrier family 15 member 2 (Homo sapiens); experiment: TP_TRANSPORTER: inhibition of Gly-Sar uptake (Gly-Sar: 30 uM, Gly-Phe: 10000 uM) in PEPT2-expressing HeLa cells

Question: Which Activity [1] does the source give for CC1=C(C(=O)O)N2C(=O)[C@@H](NC(=O)[C@H](N)c3ccc(O)cc3)[C@H]2SC1 here?
Answer: 0%

Question: CC1=C(C(=O)O)N2C(=O)[C@@H](NC(=O)[C@H](N)c3ccccc3)[C@H]2SC1 was tested. Which Activity [2] did it give?
Answer: 0%

Question: For C[C@H](N)C(=O)NCC(=O)N1CCC[C@H]1C(=O)O (H-Ala-Gly-Pro-OH), which Activity [3] is on record?
Answer: 0%

Question: NCC(=O)N[C@@H](Cc1ccccc1)C(=O)O (H-Gly-Phe-OH) was tested. Which Activity [4] did it give?
Answer: 0%
